Experimental findings from patent publication US8900590B2 (priority 2010, dated 2014) are described below.

For this assay, the system named is H1N1 A/California/04/09. Format: in vivo, DBA/2 mice. The note with it: 18 days.

Regarding `CCOC(=O)C1=C[C@@H](OC(CC)CC)[C@H](NC(C)=O)[C@@H](N)C1` [oseltamivir], the animals survived result was “no survival”.
